# Experiments:
# [1] = in vivo; settings: both sexes, beagle, dog, po, 500 mg/kg
# Source text: Examined parameters to assess toxicity included clinical observations, mortality and moribundity cheques, body weights, food consumption, electrocardiogram, TK, clinical chemistry, haematology, coagulation, urinalysis, gross pathology, organ weights, and histopathology.
# [2] = system: oxaliplatin-induced mechanical allodynia; test: Acute dosing in established OIPN, von-Frey paw withdrawal threshold; format: in vivo, male Sprague Dawley rats; settings: for PWT response versus vehicle: 2 hours
# Description: OXA (Tocris Bioscience) was dissolved in 5% dextrose (Sigma-Aldrich) and administered intraperitoneally (IP) at a volume of 6 mL/kg. […] AM251 (CB1 antagonist; Tocris Bioscience), AM630 (CB2 antagonist; Tocris Bioscience), GW6471 (PPARα antagonist; Tocris Bioscience), and AMG9810 (TRPV1 antagonist; Tocris Bioscience) were dissolved in saline with 4% dimethyl sulfoxide and delivered IP. Male Sprague Dawley rats (150–210 g) were housed in groups of 4 in intra-ventilated Perspex home cages. Humidity, temperature (21 ± 1 °C), and lighting (light-dark cycle of 12:12 hours) were controlled and maintained in the home cages, with food and water available ad libitum. Rats acclimatised to the home cages for at least 1 week. All experiments were carried out according to the Animals (Scientific Procedures) Act, 1986 (U.K. Government Home Office). The study was performed under the Home Office project licence number PP0847012. OIPN was established with a single dose of OXA (10 mg/kg, IP). […] Tactile allodynia (primary outcome measure) was assessed using paw withdrawal threshold (PWT), a measure of pain sensitivity. PWT was evaluated using calibrated von-Frey monofilaments (Touch-Test Sensory Evaluator; Scientific Marketing Associates) applied to the plantar surface of the left hind paw. PWT was determined by increasing and decreasing stimulus intensity and estimated using Dixon’s up-down method.[38],[39] To acquire baseline readings, pain behaviour was assessed on 3 consecutive days (Days −3, −2, −1). The mean of Day −2 and Day −1 was considered the healthy baseline (HBL) prior to OIPN induction. On Days 5 and 6 after OXA injection, thresholds were reassessed. The mean of Days 5 and 6 was considered the neuropathic baseline (NPB). Animals were then ranked and randomised (based on a Latin square design) to treatment groups according to the percentage change of the mean thresholds observed in the NPB compared to the HBL. NPB expressed as a percentage change from HBL was calculated as follows (HBL-NPB)/HBL*100. All behavioural assessment was done by an experimenter blinded to the identity of the treatment. Separate people were responsible for dosing and assessment/data analysis.
# [3] = biological target: FABP3 (Homo sapiens, UniProt P05413); test: Fluorescence displacement binding assay (DAUDA probe)
# Description: (§1) Purified FABPs were incubated with 11-(dansylamino)undecanoic acid (DAUDA) (FABP3, FABP5) or 8-anilino-1-naphthalenesulfonic acid (ANS) (FABP7) in the presence or absence of FABP inhibitors (.01–200 μM) in the binding assay buffer. FABP4 binding was assessed using a commercially available kit (Cayman Chemical, Ann Arbor). In all cases, arachidonic acid (10 μM) was included to account for maximal probe displacement. Loss of fluorescence intensity was monitored with an F5 Filtermax Multi-Mode Microplate Reader (Molecular Devices, Sunnyvale) using the following excitation and emission wavelengths (DAUDA: ex./em.= 360/535 nm; ANS: ex./em. = 360/465 nm). Following background subtraction, the fluorescence intensity values were normalised and analyzed via a one-site binding model using the GraphPadPrism (version 9.2). Ki values were determined using the following equation: Ki= IC50/(1 + ([Probe]/Kd).
# [4] = Plasma concentration in PKPD time course (established OIPN); format: in vivo, male Sprague Dawley rats; settings: OIPN rats, single 100 mg/kg PO
# Description: The doses were based on previous studies that used these antagonists in animal models of CIPN.[33]–[37]
# Quantitative bioanalysis by LC-MS/MS of plasma and spinal cord levels of ART26.12 was carried out by a commercial supplier (Sygnature Discovery, Nottingham, UK).
# [5] = system: oxaliplatin-induced mechanical allodynia; test: 7-day treatment of established OIPN, paw withdrawal threshold; format: in vivo, male Sprague Dawley rats; settings: 25 mg/kg BID PO 7 days, across Days 7 and 14, P < .05
# Description: Male Sprague Dawley rats (150–210 g) were housed in groups of 4 in intra-ventilated Perspex home cages. Humidity, temperature (21 ± 1 °C), and lighting (light-dark cycle of 12:12 hours) were controlled and maintained in the home cages, with food and water available ad libitum. Rats acclimatised to the home cages for at least 1 week. All experiments were carried out according to the Animals (Scientific Procedures) Act, 1986 (U.K. Government Home Office). The study was performed under the Home Office project licence number PP0847012. OIPN was established with a single dose of OXA (10 mg/kg, IP).
# Body weight was monitored throughout the study, and terminal plasma and whole brain samples were taken for bioanalysis.
# Tactile allodynia (primary outcome measure) was assessed using paw withdrawal threshold (PWT), a measure of pain sensitivity. PWT was evaluated using calibrated von-Frey monofilaments (Touch-Test Sensory Evaluator; Scientific Marketing Associates) applied to the plantar surface of the left hind paw. PWT was determined by increasing and decreasing stimulus intensity and estimated using Dixon’s up-down method.[38],[39]
# To acquire baseline readings, pain behaviour was assessed on 3 consecutive days (Days −3, −2, −1). […] NPB expressed as a percentage change from HBL was calculated as follows (HBL-NPB)/HBL*100. […]
# [6] = biological target: FABP7 (Homo sapiens, UniProt O15540); test: Fluorescence displacement binding assay (ANS probe)
# Description: as §1
# [7] = in vivo; design: species or system Wistar Han rats; settings: both sexes, Wistar Han, rat, po, 500 mg/kg
# Description: Twenty-nine male and 29 female Wistar Han rats were assigned to 7 groups (4 main and 3 toxicokinetic (TK) groups), with 5 rats/sex/group in the main groups and […] in TK groups. Dose formulations were administered twice daily by oral gavage at 100, 300, and 1,000 mg/kg/day (50, 150, and 500 mg/kg/dose) for 14 consecutive days, with a vehicle control group dosed in the same manner. Toxicity was assessed based on clinical signs, daily body weights, food consumption, organ weights, clinical, gross, and anatomic pathology.
# Chain of FABP3 (P05413 whole entry, species assumed): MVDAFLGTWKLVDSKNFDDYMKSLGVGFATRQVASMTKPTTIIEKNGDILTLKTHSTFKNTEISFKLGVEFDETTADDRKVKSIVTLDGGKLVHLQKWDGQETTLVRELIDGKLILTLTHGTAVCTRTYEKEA
# Chain of FABP7 (O15540 whole entry, species assumed): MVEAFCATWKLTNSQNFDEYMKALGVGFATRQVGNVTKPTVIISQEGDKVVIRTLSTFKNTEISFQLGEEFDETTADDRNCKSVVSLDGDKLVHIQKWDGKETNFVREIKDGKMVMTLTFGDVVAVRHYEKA
smiles,measurement,setting,value
"COc1ccccc1[C@@H]1[C@H](C(=O)O)[C@@H](c2ccccc2OC)[C@H]1C(=O)OC1Cc2ccccc2C1 [ART26.12, (+)–3-Indan-2-yloxycarbonyl-2,4-bis(2-methoxyphenyl)cyclobutanecarboxylic acid]",NOAEL at 14 days,[1],1000 mg/kg/day
same,PWT response versus vehicle,[2]; 100 mg/kg PO co-administered with AM630 (CB2 antagonist) 3 mg/kg IP,not significantly different to vehicle
same,PWT response versus vehicle,[2]; 100 mg/kg PO co-administered with AMG9810 (TRPV1 antagonist) 3 mg/kg IP,not significantly different to vehicle
same,PWT response versus vehicle,[2]; 100 mg/kg PO co-administered with GW6471 (PPARα antagonist) 4 mg/kg IP,not significantly different to vehicle
same,PWT compared to ART26.12 alone,"[2]; 100 mg/kg PO co-treated with AM251 (CB1 antagonist) 3 mg/kg IP, P < .05",significantly reduced PWT
same,duration of acute attenuation of mechanical allodynia,"[2]; established OIPN, acute oral dosing",up to 8 hours
same,PWT compared to vehicle,"[2]; established OIPN, 50 mg/kg (P < .05), 75 mg/kg (P < .05), 100 mg/kg (P < .001) PO, 30 minutes and 2 hours post-dose",significantly increased PWT
same,PWT time course after single dose,"[2]; established OIPN, 100 mg/kg PO, at 30 minutes, 2, 3, 4 and 8 hours",significantly increased
same,PWT compared to vehicle-alone,"[2]; mechanism study, 100 mg/kg PO, 30 minutes or 2 hours, P < .01",significantly increased PWT
same,Ki,[3],71.3 ± 2.4 µM
same,peak total plasma concentration,[4]; mean ± SEM,122 ± 13 µM
same,Tmax,"[4]; male, Sprague Dawley, rat, plasma, read-out: time of peak plasma concentration",~3 h
same,PWT scores versus vehicle,[5],significantly higher PWT scores than vehicle
same,Ki,[6],19 ± 1.81 µM
same,NOAEL at 14 days,[7],1000 mg/kg/day

# — article PMC12993615 (The journal of pain, 2024)
